From patent US20220194989A1, “SUPRAMOLECULAR POLYPEPTIDE COMPOSITIONS AND METHODS OF MAKING AND USING THE SAME” (Duke University, priority 2019, published 2022)
Read-outs that look alike come from different tables or passages of the source. Where no end group is shown, it is not given here.

Experiments:
[1] = system: DC2.4 cells; assay: Confocal microscopy of nanofiber internalization; type: cell-based; conditions: after 24 hours
[2] = system: local macrophages; assay: In vivo APC uptake of fluorescent nanofibers after i.p. injection; parameters: species or system mice; conditions: 2 hours
[3] = system: Dendritic cells; assay: as above; parameters: species or system mice; conditions: 2 hours
[4] = system: mice; assay: Multiplex cytokine analysis of lavage fluid after i.p. injection; type: in vivo; conditions: for IFNγ in lavage fluid / IL1β in lavage fluid / IL6 in lavage fluid: 2-hour i.p. stimulation, versus PBS
Description: Immune activation is not mediated by inflammation.

[5] = system: splenocytes; assay: Flow cytometry of splenocytes after s.c. immunization; type: in vivo, mice; conditions: spleens 5 days after last boost; for CD4+CD25hi T cells (Tregs): versus PBS
Description: FIG. 8. […] (a) Cartoon of s.c. immunization schedule with either (KEYA)20Q11 (red), Q11 (blue), PBS (gray). Spleens were harvested at week 6. Percent of (b) CD3+ cells and (c) CD3+IL4+ cells from total number of live cells. Percent of (d) CD4+ cells and (e) CD4+IL4+ cells from total number of CD3+ cells. […] Mean+/−s.e.m. shown. n=4-5 experimental replicates per group.
Mice were immunized and boosted twice with (KEYA)20Q11, Q11, or PBS ([…]) and their spleens were harvested 5 days after the last boost. After the splenocytes were stimulated overnight with their immunizing peptide, cells were stained and taken to flow cytometry for analysis.

[6] = parameters: species or system mice; conditions: mouse, in vivo; for persistence at the injection site (average days fluorescence detected): sc
Description: Persistence at the injection site.

[7] = cited from earlier work
[8] = system: influenza; assay: Unpublished studies of NP-Q11 flu epitope; type: in vivo
[9] = system: mice; assay: Footpad swelling after footpad injection; conditions: single footpad injection, measured over 72 hours, compared to PBS
Protocol: (§1) (a) Footpad swelling measured 3, 6, 12, 24, 48, and 72 hours following a single footpad injection of (KEYA)20Q11 (red), Alum (dark gray), or PBS (light gray) and subtracted from baseline measurements. […] Mean+/−s.e.m. shown. n=3-5 experimental replicates per group.
(§2) Mice were injected sub-dermally on the back-right footpad with (KEYA)20Q11, Alum, or PBS to determine extent of inflammation caused by the nanomaterial (FIG. 7a). […] Footpad swelling was measured over the course of 72 hours and normalized to a pre-injection footpad thickness measurement.

[10] = system: mice; assay: Immunization with four (KEYA)nQ11 lengths, anti-immunizing peptide IgG titers; type: in vivo
[11] = system: lymphocytes from draining lymph nodes; assay: ELISpot on draining lymph nodes restimulated with immunizing peptide; type: in vivo, mice; conditions: for induction of antibody and T cell responses: summary of antibody and ELISpot results
[12] = system: DC2.4 dendritic cells; assay: alamarBlue cell viability assay; conditions: 0.2-200 μM, compared to untreated cells
[13] = system: RAW264.7 macrophages; assay: alamarBlue cell viability assay; conditions: 0.2-200 μM, compared to untreated cells
[14] = Nanofiber formation (AFM, ThT binding); type: physicochemical; conditions: physiological conditions
[15] = system: mice; assay: Immunization with Q11 nanofibers containing 1-50% (KEYA)20Q11, anti-p(KEYA)20 IgG titers; type: in vivo; conditions: 2 mM total formulation with Q11, boosted every 2.5 weeks
Protocol: FIG. 5. Titration of (KEYA)20 component modulates the strength of engagement with APCs and humoral immunity while maintaining a Type 2 T cell phenotype. Uptake of TAMRA labeled (KEYA)20Q11 in (a) DC2.4 dendritic cells, RAW264.7 macrophages, and B-LCL human B cells stimulated for 0.1, 0.5, 2, 24, and 72 (B cells only) hours measured by flow cytometry. 100% refers to the molar percent of (KEYA)20 incorporated into a 2 mM Q11 nanofiber. 10% indicates 10% (KEYA)20Q11 and 90% Q11, while 0% indicates the entire nanofiber contains only Q11. All groups included 2.5% fluorescent TAMRA-Q11. (b) Representative confocal images of fluorescent Q11 and (KEYA)20Q11 stimulated DC2.4 cells. Nanofibers seen in red, cell nuclei in blue, and cell borders in green. […] (c) Populations of mouse APCs containing nanofibers collected 12 hours after i.p. injection. (d) Cartoon indicating the boosting schedule and graph of the anti-p(KEYA)20 IgG antibody titers. 50% (KEYA)20 is represented darkest red, 33% (KEYA)20 in the second darkest, 10% (KEYA)20 in the second lightest, and 1% (KEYA)20 in the lightest color. Week 16 IgG1 and IgG2c isotypes are shown in (e), (KEYA)20 only produces an IgG1 response when at 33% and 50%. […]

[16] = system: Lymphocyte populations purified from spleens; assay: ELISpot after immunization with (KEYA)20Q11 co-assembled with PADREQ11; type: in vivo, mice; conditions: co-assembled with 2.5% PADREQ11; 3.5 weeks
Protocol: FIG. 6. (KEYA)20Q11 can enhance the T cell stimulatory capabilities of other T and B cell epitopes. (a) ELISpot from mice immunized and boosted with nanofiber formulations containing 2.5% PADREQ11 and either 97.5% (dark red), 2.5% (light red), or 0% (gray) (KEYA)20Q11 co-assembled with Q11 into a 2 mM nanofiber. […] (b) ELISpot from mice immunized and boosted with nanofiber formulations containing 50% NPQ11 and either 50% (red), or 0% (gray) (KEYA)20Q11 co-assembled with Q11 into a 2 mM nanofiber. […] (c) Cartoon of immunization schedule for figures (d) and (e). All groups contained 50% TNFQ11 (d) anti-TNF IgG antibody titers for groups described in (c). (e) anti-TNF IgG1 and IgG2c antibodies. *p<0.05, **p<0.01, ***p<0.001 by 2way ANOVA with Sidak's post hoc test.
Enhancement of co-assembled T and B cell epitopes. Having characterized (KEYA)20Q11 and the subsequent humoral and cellular responses, the inventors tested the hypothesis that co-assembling (KEYA)20Q11 with other epitopes may enhance the response to the co-assembled epitope. Previous work has established a method for ensuring co-assembly of multiple epitopes onto a single nanofiber^38. Highlighting an advantage of the Q11 system, we were able to systematically add and titrate co-assembled (KEYA)20Q11 with a variety of T and B cell epitopes to investigate the resulting magnitude of immune responses. […]

[17] = system: purified lymphocyte populations from spleens; assay: ELISpot after immunization with (KEYA)20Q11 co-assembled with NP-Q11; type: in vivo, mice; conditions: week 3.5
[18] = system: mice; conditions: mouse, in vivo
Protocol: as §1, §2

[19] = mouse, in vivo
Protocol: Mice injected with TAMRA labeled Q11 on the left flank and (KEYA)20Q11 on the right were (a) measured with IVIS immediately after injection and daily for 7 days. (b) The number of days the fluorescence was detected was graphed to compare the persistence between the two groups. (c) The radiant efficiency was calculated from the images collected and graphed on a log 10 scale. (d) Total amount of remaining nanofiber and (e) overlap between nanofibers and CD45+ cells calculated from confocal images. (f) Representative confocal images from injection site skin collected on Day 7.
Persistence at the injection site. […] Uptake by APCs occurs primarily at the s.c. injection site, so we used IVIS to image mice injected with fluorescently labeled nanofibers over the course of a week. Mice were injected with Q11 on their left flank and (KEYA)20Q11 on their right (FIG. 9a) and images were taken daily to measure the retention of each nanomaterial at the injection site. […] Skin sections were taken of the injection site on day 7 and stained with CD45, a common lymphocyte marker, and DAPI, a common cell nuclei stain (FIG. 9d-f).

[20] = 12-hour i.p. stimulation, compared to PBS

Compound: QQKFQFQFEQQ (Synthetic- KEYA Q11) [reference compound]
- internalization seen by confocal microscopy [1]: minimally internalized
- local macrophages with nanofiber uptake [2]: ~100%
- dendritic cell population with nanofiber uptake [3]: about 25%
- IFNγ in lavage fluid [4]: indistinguishable from PBS
- IL1β in lavage fluid [4]: indistinguishable from PBS
- IL6 in lavage fluid [4]: indistinguishable from PBS
- CD4+CD25hi T cells (Tregs) [5]: significantly increases
- persistence at the injection site (average days fluorescence detected) [6]: 3 days
- inflammation after injection ([7]; in vivo): not inflammatory
- humoral response ([7]; previous reports): no humoral response

Compound: NH2-QVYSLIRPNENPAHK SGSG QQKFQFQFEQQ-Am (H-QVYSLIRPNENPAHKSGSGQQKFQFQFEQQ-NH2; also: linked to (KEYA)20Q11) [NP-Q11]
- protection against an influenza challenge ([8]; unpublished studies): does not raise strong enough responses to be protective
- T cell response phenotype ([8]; unpublished work): IFNγ biased T cell responses

Compound: Alum
- footpad swelling [9]: significantly larger swelling

Compound: XQQKFQFQFEQQ (not fully specified; X: randomised place (mixture)) [(KEYA)1Q11]
- (KEYA)n-specific IgG antibodies ([10]; boosted every 2.5 weeks, 14-week experiment): no humoral response
- induction of antibody and T cell responses [11]: ineffective at inducing immune responses

Compound: C[S+](C)[O-] [DMSO]
- cell viability (health of the dendritic cells) [12]: dose dependent cytotoxic response
- cell viability (health of the macrophages) [13]: dose dependent cytotoxic response

Compound: XXXXXXXXXXXXXXXXXXXXQQKFQFQFEQQ [(KEYA)20Q11]
- nanofiber formation [14]: self-assembles into nanofibers
- Th2 response indicated by IgG1 versus IgG2c titers ([10]; week 14): strong Th2 response
- induction of antibody and T cell responses [11]: strong antibody and T cell responses
- IL4 production by T cells (ELISpot) ([11]; week 14, compared with (KEYA)1Q11 or (KEYA)5Q11): significantly higher IL4 production
- internalization seen by confocal microscopy [1]: abundantly present
- local macrophages with nanofiber uptake [2]: ~100%
- dendritic cell population with nanofiber uptake [3]: about 60%
- molar concentration in nanofiber necessary to stimulate a (KEYA)20-specific IgG humoral response [15]: ≥ 33%
- Type 2 T cell bias upon re-stimulation with p(KEYA)20 [16]: statistically higher production of IL4 than IFNγ
- T cell response to pNP ([17]; 50% (KEYA)20Q11 co-assembled with 50% NP-Q11 versus 0%): significantly enhanced
- response to re-stimulation with p(KEYA)20 ([17]; co-assembled with 50% NP-Q11): strong response
- IFNγ in lavage fluid [4]: indistinguishable from PBS
- IL1β in lavage fluid [4]: indistinguishable from PBS
- IL6 in lavage fluid [4]: indistinguishable from PBS
- IL4 in lavage fluid [4, 20]: significantly elevated
- IL5 in lavage fluid [4, 20]: significantly elevated
- CD4+ T cells [5]: slight reduction
- general proliferation of T cells (total percent of CD3+ cells) [5]: no effect
- percent of IL4+ CD3+ cells [5]: significantly higher percent
- percent of IL4+ CD4+ T cells [5]: increase
- CD4+CD25hi T cells (Tregs) [5]: increases the production of Tregs
- amount retained at the site by radiant efficiency [6]: greater amounts
- persists at the injection site and maintains immunogenicity [6]: up to 7 days
- persistence at the injection site (average days fluorescence detected) [6]: 5 days
- footpad swelling [18]: no distinguishable swelling
- capsule formation around the injected material [19]: little to no capsule formation

Compound: SSQNSSDKPVAHVVANHQVE-SGSG-QQKFQFQFEQQ (SSQNSSDKPVAHVVANHQVESGSGQQKFQFQFEQQ; Synthetic- TNF-Q11 TNF4-23 linked to (KEYA)20Q11)
- effect on inflammation ([7]; when a strong B cell response is raised): effectively reduce inflammation
